Measurements as given in patent US20110144045A1, “USE OF FUMAGILLIN AND THE DERIVATIVES THEREOF TO INCREASE THE BIOAVAILABILITY OF THE MACROCYCLIC LACTONES” (INSTITUT NATIONAL DE LA RECHERCHE AGRONOMIQUE, priority 2005, published 2011).
pEC50: −log10 of the molar value.

Tests used:
rat hepatocytes [1] = assay: Intracellular quantity of 14C moxidectin in primary-cultured rat hepatocytes +/- fumagillin; type: cell-based
Experimental: The isolation and culturing of rat hepatocytes has been described previously (Dupuy et al., 2001b). The hepatocytes are distributed into culture dishes and kept at 37° C. for 12 hours (oven 5% CO2). The cells are cultured in the presence of 5 μM ^14C moxidectin (control) +/−100 μM fumagillin. After 0, 6, 24, 48 and 72 h the incubations are stopped (n=3 for each treatment), the media collected and the hepatocytes harvested by mechanical disassociation in phosphate buffer saline (PBS 1×). The media and the hepatocytes are stored at −20° C. until analysis by high-performance liquid chromatography (HPLC).
^14C moxidectin is quantified in the medium and the hepatocytes by a HPLC technique coupled with an in-line radioactivity detection (Dupuy et al., 2001b). This technique allows ^14C moxidectin and its main metabolite (C29 monohydroxyethyl moxidectin) in rat hepatocytes to be detected and quantified. The radioactivity is measured by liquid scintillation counting (Kontron Beta V counter). The total initial radioactivity of the initial medium at 5 μM ^14C moxidectin +/−100 μM fumagillin corresponds to the 100% value. Due to the concentration of moxidectin detected in the hepatocytes (ng.ml^−1) and to the initially introduced percentage of radioactivity, the time-concentration areas under the curve are calculated from the first to the last experimental point using the trapezoidal method (Gibaldi and Perrier, 1982).

rat hepatocytes [2] = details: rat hepatocytes in primary culture; Dupuy et al., 2001b; 2003; cited from earlier work
murine Pgp = murine Pgp (Mus musculus, UniProt P21447); assay: Intracellular accumulation of rhodamine 123 in Mdr1a-LLCPK1 cells (Pgp transport function); type: cell-based
Chain of murine Pgp (P21447 whole entry): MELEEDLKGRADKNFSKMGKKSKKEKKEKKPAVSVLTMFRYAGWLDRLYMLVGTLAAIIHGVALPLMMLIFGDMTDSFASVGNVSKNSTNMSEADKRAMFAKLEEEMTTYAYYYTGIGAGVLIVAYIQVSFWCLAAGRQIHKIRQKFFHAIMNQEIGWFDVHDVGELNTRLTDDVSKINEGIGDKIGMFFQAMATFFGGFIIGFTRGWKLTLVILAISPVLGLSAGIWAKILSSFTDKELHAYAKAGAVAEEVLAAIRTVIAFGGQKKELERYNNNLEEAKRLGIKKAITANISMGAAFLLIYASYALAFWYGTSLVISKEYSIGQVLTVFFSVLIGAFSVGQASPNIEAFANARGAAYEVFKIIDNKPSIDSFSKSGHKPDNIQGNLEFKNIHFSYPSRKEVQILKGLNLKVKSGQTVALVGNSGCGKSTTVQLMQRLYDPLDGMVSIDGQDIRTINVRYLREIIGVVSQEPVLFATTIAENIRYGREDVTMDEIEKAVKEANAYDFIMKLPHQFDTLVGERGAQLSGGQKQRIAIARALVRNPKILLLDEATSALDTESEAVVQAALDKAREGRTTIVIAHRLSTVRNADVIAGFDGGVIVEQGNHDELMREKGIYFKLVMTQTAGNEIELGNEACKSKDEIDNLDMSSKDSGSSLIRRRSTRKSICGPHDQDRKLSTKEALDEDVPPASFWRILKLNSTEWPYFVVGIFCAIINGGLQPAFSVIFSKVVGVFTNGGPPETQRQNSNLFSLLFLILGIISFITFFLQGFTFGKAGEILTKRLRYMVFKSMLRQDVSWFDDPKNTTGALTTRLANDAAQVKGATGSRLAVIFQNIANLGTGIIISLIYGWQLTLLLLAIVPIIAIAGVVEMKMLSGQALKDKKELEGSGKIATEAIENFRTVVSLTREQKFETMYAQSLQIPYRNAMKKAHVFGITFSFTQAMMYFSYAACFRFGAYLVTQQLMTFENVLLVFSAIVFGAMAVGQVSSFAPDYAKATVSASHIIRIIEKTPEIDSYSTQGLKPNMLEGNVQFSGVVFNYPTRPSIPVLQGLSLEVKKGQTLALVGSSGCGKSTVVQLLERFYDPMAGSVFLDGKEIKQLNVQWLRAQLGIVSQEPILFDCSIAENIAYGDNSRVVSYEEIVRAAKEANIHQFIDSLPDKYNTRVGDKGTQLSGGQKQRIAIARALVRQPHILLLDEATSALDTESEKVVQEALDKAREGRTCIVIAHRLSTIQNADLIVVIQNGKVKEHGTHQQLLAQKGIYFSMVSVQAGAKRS
Experimental: (§1) They are cultured for 48 hours at 37° C. to reach confluence in 1 ml of medium without G418. The medium is eliminated and the cells washed with 0.5 ml PBS 1×. […] The cells are lysed by the addition of 0.3 ml PBS 1×/0.5% sodium dodecyl sulphate (50/50, v/v) in each well. After 10 minutes at ambient temperature, 0.3 ml PBS 1× is added to each well then the total lysate (0.6 ml) is transferred to a 2-ml plastic tube and stored at −20° C. until it is analyzed by spectrofluorometry.
(§2) The results obtained were modelled according to the Hill model (Scientist software, Micromath research, Saint Louis, USA).

murine Pgp (Mdr1a) = murine Pgp (Mdr1a) (Mus musculus, UniProt P21447); assay: as above; type: cell-based; details: mouse, probe rhodamine 123 (10 μM); Hill model; reached at 50 μM of fumagillin; read-out: maximum effect (Emax), Rho123 accumulation as percentage of the VSP effect
Chain of murine Pgp (Mdr1a) (P21447 whole entry): as above
Experimental: as §1, §2

## CO/N=C1\C[C@]2(C[C@@H]3C[C@@H](C/C=C(\C)C[C@@H](C)/C=C/C=C4\CO[C@@H]5[C@H](O)C(C)=C[C@@H](C(=O)O3)[C@]45O)O2)O[C@H](/C(C)=C/C(C)C)[C@H]1C [Moxidectin, moxidectin]
Rat hepatocytes [1]; rat
  time of maximum quantity of intracellular moxidectin: 6 h
Rat hepatocytes [1]; rat, 0 h, 5 μM
  quantity of 14C moxidectin in cultured rat hepatocytes: 4.5 ± 1.25
Rat hepatocytes [1]; rat, 6 h, 5 μM
  quantity of 14C moxidectin in cultured rat hepatocytes: 72.95 ± 9.98
Rat hepatocytes [1]; rat, 24 h, 5 μM
  main metabolite (C29 monohydroxyethyl) as share of the parent substance: ≤ 4%
  quantity of 14C moxidectin in cultured rat hepatocytes: 52.60 ± 5.94
Rat hepatocytes [1]; rat, 48 h, 5 μM
  quantity of 14C moxidectin in cultured rat hepatocytes: 22.19 ± 4.00
Rat hepatocytes [1]; rat, 72 h, 5 μM
  quantity of 14C moxidectin in cultured rat hepatocytes: 11.98 ± 1.30

## CC(=O)N1CCN(c2ccc(OCC3COC(Cn4ccnc4)(c4ccc(Cl)cc4Cl)O3)cc2)CC1 (stereo not drawn) [ketoconazole]
Rat hepatocytes [2]
  effect on the quantity of 14C moxidectin in the hepatocytes of rats: significantly increases

## C/C=C/C[C@@H](C)C(=O)[C@H]1C(=O)N[C@@H](C(C)C)C(=O)N(C)CC(=O)N(C)[C@@H](CC(C)C)C(=O)N[C@@H](C(C)C)C(=O)N(C)[C@@H](CC(C)C)C(=O)N[C@@H](C)C(=O)N[C@H](C)C(=O)N(C)[C@@H](CC(C)C)C(=O)N(C)[C@@H](CC(C)C)C(=O)N(C)[C@@H](C(C)C)C(=O)N1C [VSP, Valspodar]
Murine Pgp; VSP 10 μM, considered to be the maximum value by definition
  Rho 123 accumulation, maximum value taken as reference: 100%

## O=c1c(O)c(-c2ccc(O)c(O)c2)oc2cc(O)cc(O)c12 [quercetin]
Rat hepatocytes [2]
  effect on the quantity of 14C moxidectin in the hepatocytes of rats: significantly increases

## CC[C@H](C)[C@H]1O[C@]2(CC[C@@H]1C)C[C@@H]1C[C@@H](C/C=C(\C)[C@@H](O[C@H]3C[C@H](OC)[C@@H](O[C@H]4C[C@H](OC)[C@@H](O)[C@H](C)O4)[C@H](C)O3)[C@@H](C)/C=C/C=C3\CO[C@@H]4[C@H](O)C(C)=C[C@@H](C(=O)O1)[C@]34O)O2 [IVM, ivermectin]
Murine Pgp; 5 μM IVM, Mdr1a-LLCPK1 cells, 2 h, 10 μM Rho123
  effect on Rho 123 accumulation relative to the effect of VSP: 95%

## CO[C@@H]1[C@H](OC(=O)/C=C/C=C/C=C/C=C/C(=O)O)CC[C@]2(CO2)[C@H]1[C@@]1(C)O[C@@H]1CC=C(C)C [fumagillin]
Rat hepatocytes [1]; 100 μM fumagillin with 5 μM 14C moxidectin, over a period of 72 h, versus moxidectin control
  increase of the quantity of moxidectin in the hepatocytes (time-concentration area under the curve): 65%
Murine Pgp (Mdr1a)
  Emax at 2 h, 50 μM: 43.7%
Murine Pgp; Rho123 accumulation in Mdr1a-LLCPK1, Hill model, read-out: EC50, concentration necessary to reach 50% of the maximum effect
  pEC50: 5.00
Murine Pgp; fumagillin 10 to 100 μM
  effect on the quantity of intracellular Rho 123: increased
